Source: patent US20230040770A1, “HETEROCYCLIC COMPOUND AND USE THEREOF” (TAKEDA PHARMACEUTICAL COMPANY LIMITED, priority 2019, published 2023)

biological target: T1, human orexin type 2 receptor (Homo sapiens, UniProt O43614); test: Measurement of orexin type 2 receptor agonist activity (calcium indicator fluorescence, CHO cells forcibly expressing human OX2 receptor); type: cell-based; conditions: compound at 3 μM; 0% = DMSO, 100% = orexin A (human) 10 nM
T1 construct: expressed in transfected cells
T1 sequence (O43614 1-444): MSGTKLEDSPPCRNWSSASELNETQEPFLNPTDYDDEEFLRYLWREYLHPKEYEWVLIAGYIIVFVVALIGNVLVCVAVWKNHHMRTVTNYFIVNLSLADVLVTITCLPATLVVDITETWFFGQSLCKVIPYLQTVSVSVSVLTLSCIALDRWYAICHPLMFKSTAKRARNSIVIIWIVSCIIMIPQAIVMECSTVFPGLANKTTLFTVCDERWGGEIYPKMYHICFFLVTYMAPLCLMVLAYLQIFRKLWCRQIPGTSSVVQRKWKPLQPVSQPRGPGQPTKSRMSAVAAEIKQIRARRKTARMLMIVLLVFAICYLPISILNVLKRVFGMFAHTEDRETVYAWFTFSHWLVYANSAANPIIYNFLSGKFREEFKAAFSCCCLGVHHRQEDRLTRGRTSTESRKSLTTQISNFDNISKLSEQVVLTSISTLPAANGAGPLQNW
Outline: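 CHO-dhfr cells stably expressing human OX2R, loaded with Fluo-4 AM (30 min 37 °C, then 30 min RT), then given test compound. Calcium fluorescence read by FDSS over ~2 min. Activity (%) scaled from DMSO (0%) to 10 nM final orexin A (100%).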

| SMILES | OX2R agonist activity (3 μM, %) [%] |
| --- | --- |
| CCS(=O)(=O)N[C@@H]1[C@H](Cc2cccc(-c3cccc(Cl)c3)c2F)N(C(=O)C(C)(C)O)CC1(F)F [Example 68, N-[(2S,3R)-2-[(3′-chloro-2-fluoro[1,1′-biphenyl]-3-yl)methyl]-4,4-difluoro-1-(2-hydroxy-2-methylpropanoyl)pyrrolidin-3-yl]ethanesulfonamide] | 106 |
| CCS(=O)(=O)N[C@@H]1[C@H](Cc2cccc(-c3ccc(F)c(F)c3F)c2F)N(C(=O)C2CCO2)CC1(F)F (stereo partly drawn) [Example 470, N-{(2S,3R)-4,4-difluoro-1-(oxetane-2-carbonyl)-2-[(2,2′,3′,4′-tetrafluoro[1,1′-biphenyl]-3-yl)methyl]pyrrolidin-3-yl}ethanesulfonamide] | 103 |
| CCS(=O)(=O)N[C@@H]1[C@H](Cc2cccc(-c3cccc(F)c3)c2F)N(C(=O)C2CC2)CC1(F)F [Example 202, N-{(2S,3R)-1-(cyclopropanecarbonyl)-2-[(2,3′-difluoro[1,1′-biphenyl]-3-yl)methyl]-4,4-difluoropyrrolidin-3-yl}ethanesulfonamide] | 94 |
| CCS(=O)(=O)N[C@H]1[C@@H](F)CN(C(=O)C2CC2)[C@H]1Cc1cccc(-c2cc(F)ccc2F)c1F [Example 238, N-{(2S,3R,4S)-1-(cyclopropanecarbonyl)-4-fluoro-2-[(2,2′,5′-trifluoro[1,1′-biphenyl]-3-yl)methyl]pyrrolidin-3-yl}ethanesulfonamide] | 98 |
| CCS(=O)(=O)N[C@H]1[C@@H](F)CN(C(=O)C2CC2)[C@H]1Cc1cccc(-c2cccc(F)c2)c1F [Example 212, N-{(2S,3R,4S)-1-(cyclopropanecarbonyl)-2-[(2,3′-difluoro[1,1′-biphenyl]-3-yl)methyl]-4-fluoropyrrolidin-3-yl}ethanesulfonamide] | 96 |
| CN(C)C(=O)N1CC(F)(F)[C@H](NS(=O)(=O)C2CC2)[C@@H]1Cc1cccc(-c2cc(F)cc(F)c2)c1F [Example 524, (2S,3R)-3-[(cyclopropanesulfonyl)amino]-4,4-difluoro-N,N-dimethyl-2-[(2,3′,5′-trifluoro[1,1′-biphenyl]-3-yl)methyl]pyrrolidine-1-carboxamide] | 87 |
| CS(=O)(=O)N[C@@H]1[C@H](Cc2cccc(-c3cccc(F)c3F)c2F)N(C(=O)C2CC(F)C2)CC1(F)F (stereo partly drawn) [Example 435, N-{(2S,3R)-4,4-difluoro-1-(3-fluorocyclobutane-1-carbonyl)-2-[(2,2′,3′-trifluoro[1,1′-biphenyl]-3-yl)methyl]pyrrolidin-3-yl}methanesulfonamide] | 88 |
| CCS(=O)(=O)N[C@H]1[C@@H](F)CN(C(=O)C(C)(C)O)[C@H]1Cc1cccc(-c2cccc(Cl)c2)c1F [Example 346, N-[(2S,3R,4S)-2-[(3′-chloro-2-fluoro[1,1′-biphenyl]-3-yl)methyl]-4-fluoro-1-(2-hydroxy-2-methylpropanoyl)pyrrolidin-3-yl]ethanesulfonamide] | 93 |
| O=C(N1CC(F)(F)[C@H](NS(=O)(=O)C2CC2)[C@@H]1Cc1cccc(-c2cccc(F)c2F)c1F)C1(O)CCC1 [Example 424, N-{(2S,3R)-4,4-difluoro-1-(1-hydroxycyclobutane-1-carbonyl)-2-[(2,2′,3′-trifluoro[1,1′-biphenyl]-3-yl)methyl]pyrrolidin-3-yl}cyclopropanesulfonamide] | 95 |
| CCS(=O)(=O)N[C@@H]1[C@H](Cc2cccc(-c3ccccc3)c2F)N(C(=O)[C@H]2C[C@@H](F)C2)CC1(F)F [Example 383, N-[(2S,3R)-4,4-difluoro-2-[(2-fluoro[1,1′-biphenyl]-3-yl)methyl]-1-((1s,3R)-3-fluorocyclobutane-1-carbonyl)pyrrolidin-3-yl]ethanesulfonamide] | 94 |
